We go through 13 molecules from PubChem BioAssay (NCI).

Holding throughout (test): DTP human tumour cell line panel, 48 h
The subject of assay [1] is UO-31 renal.
For assay [2], the system named is RXF 393 renal.
Assay [3] relates to CAKI-1 renal.
In assay [4] the test system is HCC-2998 colon.
In assay [5] the test system is NCI-H522 lung.
The test system of assay [6] is UACC-257 melanoma.
Assay [7] concerns HCT-15 colon.
Assay [8] relates to SNB-19 CNS.
Assay [9] concerns K-562 leukemia.
Assay [10] concerns OVCAR-3 ovarian.
Assay [11] relates to SK-MEL-2 melanoma.

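Results reflect a 48-hour exposure of cells in 96-well plates to compound at five concentrations. GI50 = concentration required for 50% inhibition of growth. The concentration for full growth arrest is given as TGI.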

One may read the TGI as the concentration at which net growth stops. Read a low TGI as more potent growth arrest. As for `C=C1C(=O)OC2/C=C(\CO)C3OC3C3OC3(C)CC(OC(=O)/C(=C/C)COC(C)=O)C12` (configuration not stated), the TGI is 23.7 µM in assay [1]; 3.96 µM in assay [2]; 4.67 µM in assay [3]; 37.1 µM in assay [4]; 1.2 µM in assay [5]; 12.6 µM in assay [6]. Moreover, the TGI in assay [7] is 6.47 µM; in [8], 28.6 µM; in assay [9], over 100 µM; in assay [10] it was 11.4 µM; in [11], 6.78 µM.
On to `O=C1Nc2ccccc2C1(O)Cc1ccccn1` (configuration not stated), for which the TGI in [1], in assay [2], in [3], in assay [4], in assay [5] and in assay [6] was over 100 µM in each case. Besides, the TGI in [7], in assay [8], in assay [9], in assay [10] and in assay [11] was over 100 µM throughout.
On to `CSc1nc2c(ncn2C2OC(CO)C(O)C(O)C2O)c(=O)n1C` (configuration not stated), for which the TGI in assay [1], in assay [2], in [4], in assay [5], in assay [6] and in [7] was over 100 µM in each case. For the same molecule, the TGI in assay [8], in assay [9], in assay [10] and in assay [11] was over 100 µM in each case.
As to `COc1ccc2[nH]c(=O)cc(C)c2c1[N+](=O)[O-]`, the TGI in assay [1], in assay [3], in assay [4], in [5], in [6] and in assay [7] was over 100 µM throughout. Besides, the TGI in assay [8], in [9], in assay [10] and in assay [11] was over 100 µM in each case.
For orientation: GI50 means the concentration giving 50% growth inhibition. For `C=CCn1c(C)nc2cc(Nc3nc(N4CCCC4)nc4nc[nH]c34)ccc21`, the GI50 in assay [1], in assay [2], in assay [3], in [4], in [5] and in assay [6] was over 100 µM in each case. The GI50 in assay [7], in assay [8] and in [11] was over 100 µM throughout. Moreover, the TGI in [1], in [2], in assay [3], in assay [4], in assay [5] and in [6] was over 100 µM each time. Moreover, the TGI in assay [7], in assay [8] and in assay [11] was over 100 µM in each case.
Turning to `O=c1c2cc([N+](=O)[O-])ccc2[nH]n1Cc1ccccc1Cl`, the TGI in assay [1], in assay [2], in assay [3], in assay [4], in assay [5] and in assay [6] was over 100 µM throughout. In addition, the TGI in assay [7], in assay [8], in [9] and in assay [10] was over 100 µM in each case.
Take `Nc1nc2cc(COc3ccc(C(=O)O)cc3)ccc2nc1-c1ccccc1`: the TGI in [1], in [2], in assay [3], in [4], in assay [5] and in [6] was over 10 µM each time. Further, the TGI in assay [7], in [8], in assay [9], in assay [10] and in [11] was over 10 µM in each case.
Regarding `Cc1c2cnccc2c(C)c2c1c1ccccc1n2CCCCCCCl`, the TGI in assay [1], in assay [2], in assay [3], in [4], in assay [5] and in assay [6] was over 50 µM in each case. Also, the concentration for total growth inhibition (TGI) in [7], in [8], in assay [9], in assay [10] and in assay [11] was over 50 µM each time.
For `CC1=CC2=C(C=O)C(=O)[C@](C)(O)[C@@H](O)C2=CO1`, the TGI is 43.8 µM in [1]; 52.3 µM in assay [2]; over 100 µM in assay [3]; over 61.5 µM in [4]; 38.5 µM in assay [5]; over 100 µM in assay [6]. Further, the TGI in assay [7] was over 100 µM; in [8], 5.5 µM; in [9], over 90.9 µM; in assay [10] it was 5.58 µM; in assay [11], 62.2 µM.
Regarding `CS(C)(=O)=Nn1c(=O)n2n(c1=O)[C@H]1CC[C@@H]2C1`, the TGI in assay [1], in assay [2], in assay [3], in assay [5], in assay [6] and in assay [7] was over 100 µM throughout. Besides, the concentration for total growth inhibition (TGI) in assay [8], in assay [9], in [10] and in assay [11] was over 100 µM each time.
For `COc1cc(C2c3cc4c(cc3[C@@H](Nc3cnc5ccccc5c3)C3COC(=O)[C@H]23)OCO4)cc(OC)c1O` (some centres not stated), the concentration for total growth inhibition (TGI) in [1] came to 3.3 µM; in assay [2], 3 µM; in assay [3], 1.78 µM; in assay [4], 2.24 µM; in assay [5] it was 3.19 µM; in assay [6] it was 6.64 µM. For the same molecule, the TGI in assay [7] worked out at 1.31 µM; in assay [8] it was 9.53 µM; in assay [9], 7.33 µM; in assay [10], 3.9 µM; in assay [11], 3.58 µM.
Regarding `O=C(N/N=C/c1cc(Cl)cc(Cl)c1[O-])c1ccccc1O.O=C(N/N=C/c1cc(Cl)cc(Cl)c1[O-])c1ccccc1O.[Mn+2]`, the TGI in assay [1] is 11.1 µM; in assay [2], 5.7 µM; in [3], 4.33 µM; in [4], 13.5 µM; in assay [5], 0.737 µM; in assay [6], 11.9 µM. For the same molecule, the total growth inhibition concentration (TGI) was determined as 14.1 µM in [7]; 16.1 µM in assay [8]; 17.2 µM in [9]; 1.02 µM in [10]; 11.3 µM in assay [11]. Besides, the GI50 in assay [11] is 0.285 µM.
As to `O=C1Sc2sc(=S)sc2SC1c1ccccc1` (configuration not stated), the TGI in assay [1] was over 86.7 µM; in assay [2], 76.6 µM; in [3], over 100 µM; in assay [4], over 100 µM; in [5], 19.5 µM; in assay [6], over 100 µM. The TGI in [7] was 36.8 µM; in [8], over 100 µM; in assay [9], over 70.7 µM; in assay [10], over 31.6 µM; in assay [11], over 100 µM.
